Assay results published in US9512175B2, “Macrocyclic inhibitors of flaviviridae viruses” (Gilead Sciences, Inc., priority 2012, dated 2016).

Tests used:
cyclophilin A = cyclophilin A (Homo sapiens, UniProt P62937); assay: Cyclophilin A TR-FRET competitive binding assay; conditions: IC50 ranges; competition with CsA-Cy5 for His-tagged CypA, two-hour incubation; read-out: TR-FRET
Protocol: Cyclophilin A TR-FRET Competitive Binding Assay
Inhibitor potency was measured using a competitive binding assay with a time-resolved fluorescence resonance energy transfer (TR-FRET) readout. […] An IC50 value was calculated using a four-parameter logistic fit.

[1] = tested on: HCV replicon (Replicon 1a); assay: anti-HCV activity in Huh-7 cell line harboring a HCV replicon (Replicon 1a); assay type: cell-based; conditions: human hepatoma Huh-7 HCV replicon cells, 3 days, luciferase readout; for inhibition at 1 µM: Hepatitis C virus, Huh-7, 72 h, read-out: Replicon 1a % inhibition at 1 μM, 1 μM

cyclophilin A, sequence (P62937 whole entry, species assumed): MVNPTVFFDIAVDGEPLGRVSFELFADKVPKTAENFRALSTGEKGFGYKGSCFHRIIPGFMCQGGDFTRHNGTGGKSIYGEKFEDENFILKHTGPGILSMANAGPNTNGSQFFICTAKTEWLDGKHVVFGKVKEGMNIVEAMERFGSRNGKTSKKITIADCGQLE

Row | Structure (SMILES) | IC50 (cyclophilin A) | Replicon 1a % inhibition at 1 μM [1] | inhibition at 1 µM [1]
1 | COC1CCC=Cc2cccc(c2)C2CCCCN2C(=O)C2CCCN(N2)C(=O)C(C)NC(=O)C(C(C)C)NC(=O)C1C (single isomer, unassigned) [Compound 29] | 1 to 10 µM | 28% | –
2 | COC1CCC=Cc2cccc(c2)C2CCCCN2C(=O)C2CCCN(N2)C(=O)C(C)NC(=O)C(C(C)C)NC(=O)C1C (single isomer, unassigned) [Compound 30] | < 0.1 µM | 73% | –
3 | CO[C@@H]1/C=C/c2cc3cc(ccc3cn2)[C@@H](C)OC(=O)[C@]2(C)CCCN(N2)C(=O)[C@H](C)NC(=O)[C@H](C(C)C)NC(=O)[C@@H]1C (single isomer, unassigned) [Compound 34] | < 0.1 µM | – | 92%
4 | CC(C)[C@@H]1NC(=O)C(C)(C)COc2cc3cc(ccc3cn2)[C@@H](C)OC(=O)[C@@H]2CCCN(N2)C(=O)[C@H](C)NC1=O (single isomer, unassigned) [Compound 68] | < 0.1 µM | – | 91%
5 | CC(C)[C@@H]1NC(=O)C(C)(C(C)O)/C=C/c2ccc3ccc(nc3c2)[C@@H](C)OC(=O)[C@@H]2CCCN(N2)C(=O)[C@H](C)NC1=O (single isomer, unassigned) [Compound 87] | < 0.1 µM | – | –
6 | COCCC1(C)/C=C/c2ccc3ccc(nc3c2)[C@@H](C)OC(=O)[C@@H]2CCCN(N2)C(=O)[C@H](C)NC(=O)[C@H](C(C)C)NC1=O (single isomer, unassigned) [Compound 102] | < 0.1 µM | – | 100%
7 | COCCC1(C)/C=C/c2ccc3ccc(nc3c2)[C@@H](C)OC(=O)[C@@H]2CCCN(N2)C(=O)[C@H](C)NC(=O)[C@H](C(C)C)NC1=O (single isomer, unassigned) [Compound 103] | < 0.1 µM | – | 100%
8 | CC(C)[C@@H]1NC(=O)C(C)(C)/C=C/c2ccc3ccc(nc3c2)[C@@H](C)OC(=O)[C@@H]2CCCN(N2)C(=O)[C@H](CC2CCOCC2)NC1=O (single isomer, unassigned) [Compound 112] | < 0.1 µM | – | 96%
9 | CC(C)[C@@H]1NC(=O)C(C)(C)/C=C/c2ccc3ccc(nc3c2)[C@@H](C)OC(=O)[C@@H]2CCCN(N2)C(=O)C(CC2CCOCC2)NC1=O (single isomer, unassigned) [Compound 113] | 0.101 to 1 µM | – | 13%
10 | COC[C@@H]1NC(=O)[C@H](C(C)C)NC(=O)C(C)(C)/C=C/c2ccc3ccc(nc3c2)[C@@H](C)OC(=O)[C@@H]2CCCN(N2)C1=O (single isomer, unassigned) [Compound 117] | < 0.1 µM | – | 100%
11 | CC(C)[C@@H]1NC(=O)C(C)(C)/C=C/c2ccc3ccc(nc3c2)[C@H]2CCCN2C(=O)[C@@H]2CCCN(N2)C(=O)[C@H](C)NC1=O (single isomer, unassigned) [Compound 150] | < 0.1 µM | – | 95%
12 | CC(C)[C@@H]1NC(=O)C(C)(C)/C=C/c2ccc3ccc(nc3c2)[C@@H]2CCCN2C(=O)[C@@H]2CCCN(N2)C(=O)[C@H](C)NC1=O (single isomer, unassigned) [Compound 151] | 1 to 10 µM | – | 0%
13 | CC(C)[C@@H]1NC(=O)[C@H](C)[C@H](O)CC/C=C/c2cccc(c2)[C@@H](C)NC(=O)[C@@H]2CCCN(N2)C(=O)[C@H](C)NC1=O [Compound 1, (E)-(2R,5S,11S,14S,17R,18R)-18-Hydroxy-14-isopropyl-2,11,17-trimethyl-3,9,12,15,28-pentaaza-tricyclo[21.3.1.1*5,9*]octacosa-1(26),21,23(27),24-tetraene-4,10,13,16-tetraone] | < 0.1 µM | – | 32%
14 | CC(C)[C@@H]1NC(=O)[C@H](C)[C@H](OCC(F)(F)F)CC/C=C/c2cccc(c2)[C@@H](C)NC(=O)[C@@H]2CCCN(N2)C(=O)[C@H](C)NC1=O [Compound 2, (E)-(2R,5S,11 S,14S,17R,18R)-14-Isopropyl-2,11,17-trimethyl-18-(2,2,2-trifluoro-ethoxy)-3,9,12,15,28-pentaaza-tricyclo[21.3.1.1*5,9*]octacosa-1(26),21,23(27),24-tetraene-4,10,13,16-tetraone] | 0.101 to 1 µM | – | 63%
15 | CC(C)[C@@H]1NC(=O)[C@H](C)[C@H](O)CCCCc2cccc(c2)[C@@H](C)NC(=O)[C@@H]2CCCN(N2)C(=O)[C@H](C)NC1=O [Compound 3, (2R,5S,11S,14S,17R,18R)-18-Hydroxy-14-isopropyl-2,11,17-trimethyl-3,9,12,15,28-pentaaza-tricyclo[21.3.1.1*5,9*]octacosa-1(26),23(27),24-triene-4,10,13,16-tetraone] | < 0.1 µM | – | 44%
16 | CC(C)[C@@H]1NC(=O)CCC(C)(C)C/C=C/c2cccc(c2)[C@@H](C)NC(=O)[C@@H]2CCCN(N2)C(=O)[C@H](C)NC1=O [Compound 4] | 0.101 to 1 µM | – | 58%
17 | CO[C@@H]1/C=C/c2cc3cc(ccc3cn2)[C@@H](C)NC(=O)[C@@H]2CCCN(N2)C(=O)[C@H](C)NC(=O)[C@H](C(C)C)NC(=O)[C@@H]1C [Compound 5] | < 0.1 µM | – | 80%
18 | CO[C@@H]1CCc2cc3cc(ccc3cn2)[C@@H](C)NC(=O)[C@@H]2CCCN(N2)C(=O)[C@H](C)NC(=O)[C@H](C(C)C)NC(=O)[C@@H]1C [Compound 6] | < 0.1 µM | – | 86%
19 | CC(C)[C@@H]1NC(=O)C/C=C/c2ccc3ncc(nc3c2)[C@@H](C)OC(=O)[C@@H]2CCCN(N2)C(=O)[C@H](C)NC1=O [Compound 7] | < 0.1 µM | – | 94%
20 | CC(C)[C@@H]1NC(=O)CCCc2cc3cc(ccc3cn2)[C@@H](C)OC(=O)[C@@H]2CCCN(N2)C(=O)[C@H](C)NC1=O [Compound 10] | – | – | 28%
21 | CC(C)[C@@H]1NC(=O)C/C=C/c2cc3cc(ccc3cn2)[C@@H](C)NC(=O)[C@@H]2CCCN(N2)C(=O)[C@H](C)NC1=O [Compound 11] | < 0.1 µM | – | 6%

Row | Structure (SMILES) | IC50 (cyclophilin A) | Replicon 1a % inhibition at 1 μM [1] | inhibition at 1 µM [1]
22 | CC(C)[C@@H]1NC(=O)/C=C\c2cc3cc(ccc3cn2)[C@@H](C)NC(=O)[C@@H]2CCCN(N2)C(=O)[C@H](C)NC1=O [Compound 12] | – | – | 0%
23 | CC(C)[C@@H]1NC(=O)C/C=C/c2ccc3ccc(nc3c2)[C@@H](C)OC(=O)[C@@H]2CCCN(N2)C(=O)[C@H](C)NC1=O [Compound 24] | – | – | 99%
24 | CC(C)[C@@H]1NC(=O)[C@@H]([C@H](C)O)/C=C/c2ccc3ccc(nc3c2)[C@@H](C)OC(=O)[C@@H]2CCCN(N2)C(=O)[C@H](C)NC1=O [Compound 31] | – | – | 98%
25 | C[C@@H]1NC(=O)[C@H](CCN=[N+]=[N-])NC(=O)C(C)(C)/C=C/c2cc3cc(ccc3cn2)[C@@H](C)OC(=O)[C@@H]2CCCN(N2)C1=O [Compound 49] | < 0.1 µM | – | –
26 | C#CC[C@@H]1NC(=O)C(C)(C)/C=C/c2cc3cc(ccc3cn2)[C@@H](C)OC(=O)[C@@H]2CCCN(N2)C(=O)[C@H](C)NC1=O [Compound 51] | < 0.1 µM | – | –
27 | CC(C)[C@@H]1NC(=O)C2(/C=C/c3cc4cc(ccc4cn3)[C@@H](C)OC(=O)[C@@H]3CCCN(N3)C(=O)[C@H](C)NC1=O)CC2 [Compound 58] | < 0.1 µM | – | –
28 | CC(C)[C@@H]1NC(=O)C2(/C=C/c3cc4cc(ccc4cn3)[C@@H](C)OC(=O)[C@@H]3CCCN(N3)C(=O)[C@H](C)NC1=O)CCOCC2 [Compound 59] | < 0.1 µM | – | –
29 | CC(C)[C@@H]1NC(=O)CCC/C=C/c2cc3cc(ccc3cn2)[C@@H](C)OC(=O)[C@@H]2CCCN(N2)C(=O)[C@H](C)NC1=O [Compound 61] | – | – | 72%
30 | CC(C)[C@@H]1NC(=O)CCCC/C=C/c2cc3cc(ccc3cn2)[C@@H](C)OC(=O)[C@@H]2CCCN(N2)C(=O)[C@H](C)NC1=O [Compound 63] | – | – | 80%
31 | CC(C)[C@@H]1NC(=O)C(C)(C)/C=C/c2cc3cc(cnc3cn2)[C@@H](C)OC(=O)[C@@H]2CCCN(N2)C(=O)[C@H](C)NC1=O [Compound 66] | < 0.1 µM | – | –
32 | CC(C)[C@@H]1NC(=O)CCCc2ccc3ccc(cc3c2)[C@@H](C)OC(=O)[C@@H]2CCCN(N2)C(=O)[C@H](C)NC1=O [Compound 71] | 0.101 to 1 µM | – | –
33 | CC(C)[C@@H]1NC(=O)C(C)(C)CCc2cc3cc(ccc3cn2)[C@@H](C)OC(=O)[C@@H]2CCCN(N2)C(=O)[C@H](C)NC1=O [Compound 74] | – | – | 95%
34 | CC(C)[C@@H]1NC(=O)C2(/C=C/c3ccc4ccc(nc4c3)[C@@H](C)OC(=O)[C@@H]3CCCN(N3)C(=O)[C@H](C)NC1=O)COC(C)(C)OC2 [Compound 75] | < 0.1 µM | – | –
35 | CC(C)[C@@H]1NC(=O)C(C)(C2CCOC2)/C=C/c2ccc3ccc(nc3c2)[C@@H](C)OC(=O)[C@@H]2CCCN(N2)C(=O)[C@H](C)NC1=O (stereo partly drawn) [Compound 116] | < 0.1 µM | – | –
36 | CC(C)[C@@H]1NC(=O)C2(/C=C/c3ccc4ccc(nc4c3)[C@@H](C)OC(=O)[C@@H]3CCCN(N3)C(=O)[C@H](C)NC1=O)CCC(F)(F)CC2 [Compound 121] | < 0.1 µM | – | –
37 | CC(C)[C@@H]1NC(=O)C2(/C=C/c3ccc4ccc(nc4c3)[C@@H](C)OC(=O)[C@@H]3CCCN(N3)C(=O)[C@H](C)NC1=O)CCN(Cc1ccccc1)CC2 [Compound 128] | < 0.1 µM | – | –
38 | COc1cc2nc3cc(ccc13)/C=C/C(C)(C)C(=O)N[C@@H](C(C)C)C(=O)N[C@@H](C)C(=O)N1CCC[C@H](N1)C(=O)O[C@@H]2C [Compound 139] | < 0.1 µM | – | –
39 | CC(C)[C@@H]1NC(=O)C(C)(C)/C=C/c2ccc3c(C#N)cc(nc3c2)[C@@H](C)OC(=O)[C@@H]2CCCN(N2)C(=O)[C@H](C)NC1=O [Compound 140] | 0.101 to 1 µM | – | –
40 | CC(C)[C@@H]1NC(=O)C([C@H](C)O)/C=C/c2ccc3ccc(cc3c2)[C@@H](C)OC(=O)[C@@H]2CCCN(N2)C(=O)[C@@H](C)NC1=O (stereo partly drawn) [Compound 145] | < 0.1 µM | – | –
41 | Cc1c2ccc3c(Cl)cc(nc13)[C@@H](C)OC(=O)[C@@H]1CCCN(N1)C(=O)[C@H](C)NC(=O)[C@H](C(C)C)NC(=O)C(C)(C)/C=C/2 [Compound 164] | < 0.1 µM | – | –
